In test [1] the target is D(2) dopamine receptor (Rattus norvegicus) (UniProt P61169).
Test [2] concerns the target D(1A) dopamine receptor (Rattus norvegicus) (UniProt P18901). Description: (§1) Low-affinity agonist dissociation constant against striatal Dopamine receptor D1A. It is filed as functional.
For test [3], the target named is D(1A) dopamine receptor (Homo sapiens) (UniProt P21728).
The target of test [4] is D(2) dopamine receptor (Homo sapiens) (UniProt P14416).
Test [5] addresses D(1A) dopamine receptor (Homo sapiens) (UniProt P21728). As to conditions: COS-7.
For test [6] the target is unchanged. The following applies: COS-7. This is another data set of the same source.
The target is the same in test [7]. This is another data set of the same source.
The target is the same in test [8]. The description is as §1. Type of test: functional.

The values that follow come from ChEMBL document CHEMBL1129489.

D(1A) dopamine receptor (Rattus norvegicus), sequence (P18901 whole entry): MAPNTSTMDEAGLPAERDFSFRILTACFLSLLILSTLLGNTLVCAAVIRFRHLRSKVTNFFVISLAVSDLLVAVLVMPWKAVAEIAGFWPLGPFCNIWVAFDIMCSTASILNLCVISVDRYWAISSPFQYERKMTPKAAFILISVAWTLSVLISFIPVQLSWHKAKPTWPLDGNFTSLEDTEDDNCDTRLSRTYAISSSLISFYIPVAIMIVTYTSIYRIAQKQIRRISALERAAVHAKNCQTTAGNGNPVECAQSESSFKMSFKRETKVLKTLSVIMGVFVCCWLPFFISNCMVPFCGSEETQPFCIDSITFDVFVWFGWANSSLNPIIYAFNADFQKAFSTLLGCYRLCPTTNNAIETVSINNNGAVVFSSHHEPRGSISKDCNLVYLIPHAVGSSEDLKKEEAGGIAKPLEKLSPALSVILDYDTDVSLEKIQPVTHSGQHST
D(1A) dopamine receptor (Homo sapiens), sequence (P21728 whole entry): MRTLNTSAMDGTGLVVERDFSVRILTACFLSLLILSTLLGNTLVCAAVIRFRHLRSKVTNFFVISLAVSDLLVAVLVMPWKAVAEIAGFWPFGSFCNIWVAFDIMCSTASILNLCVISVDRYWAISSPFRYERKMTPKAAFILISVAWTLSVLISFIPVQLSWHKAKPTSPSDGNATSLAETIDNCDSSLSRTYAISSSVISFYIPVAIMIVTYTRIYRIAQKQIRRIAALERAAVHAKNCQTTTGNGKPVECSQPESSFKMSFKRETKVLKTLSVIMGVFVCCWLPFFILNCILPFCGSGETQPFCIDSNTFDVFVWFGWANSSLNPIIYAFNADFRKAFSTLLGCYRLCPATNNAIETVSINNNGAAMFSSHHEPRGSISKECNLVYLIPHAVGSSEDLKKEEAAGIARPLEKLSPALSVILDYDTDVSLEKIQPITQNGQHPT
D(2) dopamine receptor (Rattus norvegicus), sequence (P61169 whole entry): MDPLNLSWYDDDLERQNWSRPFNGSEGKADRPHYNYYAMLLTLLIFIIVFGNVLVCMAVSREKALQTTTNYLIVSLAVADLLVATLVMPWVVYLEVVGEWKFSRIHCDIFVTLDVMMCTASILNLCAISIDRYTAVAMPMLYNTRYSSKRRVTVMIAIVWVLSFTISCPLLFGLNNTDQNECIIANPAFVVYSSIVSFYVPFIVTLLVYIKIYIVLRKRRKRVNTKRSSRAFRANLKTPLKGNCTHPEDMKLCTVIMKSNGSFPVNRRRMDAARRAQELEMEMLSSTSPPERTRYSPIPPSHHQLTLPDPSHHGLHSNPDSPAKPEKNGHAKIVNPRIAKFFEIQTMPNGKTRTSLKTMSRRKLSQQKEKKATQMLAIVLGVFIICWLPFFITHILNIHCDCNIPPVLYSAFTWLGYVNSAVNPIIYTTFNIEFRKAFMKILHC
D(2) dopamine receptor (Homo sapiens), sequence (P14416 whole entry): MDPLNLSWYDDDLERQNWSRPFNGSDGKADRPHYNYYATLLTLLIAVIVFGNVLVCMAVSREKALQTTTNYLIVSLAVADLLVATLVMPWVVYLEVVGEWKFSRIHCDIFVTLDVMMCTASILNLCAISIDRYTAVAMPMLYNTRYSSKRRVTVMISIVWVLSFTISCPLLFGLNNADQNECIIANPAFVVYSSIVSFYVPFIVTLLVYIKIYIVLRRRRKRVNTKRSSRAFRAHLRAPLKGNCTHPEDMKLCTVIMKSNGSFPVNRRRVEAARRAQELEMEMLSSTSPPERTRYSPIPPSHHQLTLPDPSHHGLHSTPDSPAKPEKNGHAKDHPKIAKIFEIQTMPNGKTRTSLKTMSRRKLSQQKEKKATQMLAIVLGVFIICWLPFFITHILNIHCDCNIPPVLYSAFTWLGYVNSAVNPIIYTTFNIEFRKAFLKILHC

Consider `NCCc1c[nH]c2ccc(O)cc12`, for which the KL in test [1] came to 183 µM; in test [2] it was 6540 nM.

As to `Oc1cc2c(cc1O)[C@@H](c1ccccc1)CNCC2`, the KL in test [2] was determined as 381 nM. With `CN1CCc2cccc3c2[C@H]1Cc1ccc(O)c(O)c1-3`, the figures for the KL in test [3] and in test [4] were 206 nM and 127 nM, respectively. Regarding `NC[C@H](O)c1ccc(O)c(O)c1`, the figures for the KL in test [1] and in test [2] were 126 µM and 4140 nM, respectively. Also, the Log 1/Kd in test [5] amounted to 4.69. As to `Oc1ccc(C2CNCCc3c2cc(O)c(O)c3Cl)cc1` (stereo unspecified), the KL in test [1] worked out at 1 µM; in test [2], 21 nM.

`Oc1ccc([C@@H]2CNCCc3c2cc(O)c(O)c3Cl)cc1`: the KL in test [2] was 1340 nM. `NCCc1ccc(O)c(O)c1` displayed a KL in test [2] of 580 nM.

Consider `CNC[C@H](O)c1ccc(O)c(O)c1`, for which the KL in test [1] stood at 128 µM; in test [2], 980 nM. In test [6], `C=CCN1CCc2c(cc(O)c(O)c2Cl)[C@@H](c2ccccc2)C1` gave a Log 1/KL of -1.92. Also, the KL in test [7] was 83 nM.

Consider `CCCN1CCc2cccc3c2[C@@H]1Cc1ccc(O)c(O)c1-3`, for which the KL in test [8] amounted to 5.2 µM. As to `CN(C)C1CCc2cc(O)c(O)cc2C1` (stereo unspecified), the figures for the KL in test [1] and in test [2] were 0.463 µM and 734 nM, respectively.

For the molecule `CCCN1CCc2cccc3c2[C@H]1Cc1ccc(O)c(O)c1-3`, the KL in test [1] amounted to 0.023 µM; in test [2] it was 625 nM.
